Inhibition and IC50 data for 4 compounds are collected here from US20260234157A1, “COMPOUND AND METHOD FOR TARGETED DEGRADATION OF ANDROGEN RECEPTOR” (Gan & Lee Pharmaceuticals Co., Ltd., priority 2023, published 2026).

Numbering of substitutions follows the chain as printed.

The first assay has as its target T1, AR protein (Homo sapiens, UniProt P10275, T878A).
T1 construct: degradation activity of the compounds disclosed in the present disclosure on AR protein in LNCaP cells; host or cells: LNCaP FGC
T1 sequence (P10275 1-920 T878A): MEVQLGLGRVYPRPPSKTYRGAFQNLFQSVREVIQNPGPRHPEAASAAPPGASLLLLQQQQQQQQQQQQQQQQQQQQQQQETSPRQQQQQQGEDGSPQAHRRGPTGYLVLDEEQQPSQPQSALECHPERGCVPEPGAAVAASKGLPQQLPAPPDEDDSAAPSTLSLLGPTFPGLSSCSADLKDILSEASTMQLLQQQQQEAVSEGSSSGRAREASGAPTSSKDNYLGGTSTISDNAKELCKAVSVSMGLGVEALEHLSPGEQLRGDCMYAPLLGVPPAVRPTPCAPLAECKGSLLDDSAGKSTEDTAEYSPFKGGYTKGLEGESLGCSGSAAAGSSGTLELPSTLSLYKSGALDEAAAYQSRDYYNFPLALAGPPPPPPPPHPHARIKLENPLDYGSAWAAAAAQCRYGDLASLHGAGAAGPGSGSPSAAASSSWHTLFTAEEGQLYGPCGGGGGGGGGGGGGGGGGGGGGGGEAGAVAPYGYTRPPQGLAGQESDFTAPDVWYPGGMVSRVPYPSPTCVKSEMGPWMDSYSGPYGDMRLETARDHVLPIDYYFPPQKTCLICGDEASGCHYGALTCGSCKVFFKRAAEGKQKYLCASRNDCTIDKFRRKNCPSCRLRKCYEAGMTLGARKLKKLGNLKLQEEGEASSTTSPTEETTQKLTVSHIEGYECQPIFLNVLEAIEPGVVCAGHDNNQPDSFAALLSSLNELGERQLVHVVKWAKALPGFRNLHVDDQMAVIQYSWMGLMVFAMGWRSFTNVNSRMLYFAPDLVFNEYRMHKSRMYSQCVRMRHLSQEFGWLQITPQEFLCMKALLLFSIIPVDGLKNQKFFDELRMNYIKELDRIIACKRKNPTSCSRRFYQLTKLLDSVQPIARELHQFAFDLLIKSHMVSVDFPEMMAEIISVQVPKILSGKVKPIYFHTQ
In words: Degradation of AR protein in LNCaP cells (Western blot). It counts as cell-based. Particulars: LNCaP cells, compound 10 nM, 8 hours, Western blot grayscale, GAPDH internal reference; read-out: Degradation rates of the AR protein in LNCaP cells, 10 nM (%). The gist of the method: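 AR assessed by SDS-PAGE/Western blot with infrared imaging; band greyscale normalised to GAPDH gave percent degradation.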
In the case of `COc1cc(O[C@H]2C(C)(C)[C@H](NC(=O)c3ccc(N4CCC(CN5CCC6(CCc7cc8c(cc7O6)C(=O)N(C6CCC(=O)NC6=O)C8=O)CC5)CC4)cc3)C2(C)C)ccc1C#N` (stereo partly drawn) [Compound 276], the inhibition at 0.01 µM came out at 55%.
Still for that read-out and setting: for `COc1cc(O[C@H]2C(C)(C)[C@H](NC(=O)c3ccc(N4CCC(CN5CC6(CCc7cc8c(cc7O6)C(=O)N(C6CCC(=O)NC6=O)C8=O)C5)CC4)cc3)C2(C)C)ccc1C#N` (stereo partly drawn) [Compound 277] the value was 16%; for `COc1cc(O[C@H]2C(C)(C)[C@H](NC(=O)c3ccc(N4CCC(CN5CC6(CCc7ccc8c(c7O6)C(=O)N(C6CCC(=O)NC6=O)C8=O)C5)CC4)cc3)C2(C)C)ccc1C#N` (stereo partly drawn) [Compound 278], -3%; for `COc1cc(OC2C(C)(C)C(NC(=O)c3ccc(N4CCC(CN5CCC6(CC5)COc5cc7c(cc56)C(=O)N(C5CCC(=O)NC5=O)C7=O)CC4)cc3)C2(C)C)ccc1C#N` (stereo not drawn) [Compound 280], 36%.

The assay is the same for the next values; noted with them: LNCaP cells, compound 100 nM, 8 hours, Western blot grayscale, GAPDH internal reference; read-out: Degradation rates of the AR protein in LNCaP cells, 100 nM (%).
On to `COc1cc(O[C@H]2C(C)(C)[C@H](NC(=O)c3ccc(N4CCC(CN5CCC6(CCc7cc8c(cc7O6)C(=O)N(C6CCC(=O)NC6=O)C8=O)CC5)CC4)cc3)C2(C)C)ccc1C#N` (stereo partly drawn) [Compound 276], for which the inhibition at 0.1 µM was determined as 67%.
Same read-out and setting: for `COc1cc(O[C@H]2C(C)(C)[C@H](NC(=O)c3ccc(N4CCC(CN5CC6(CCc7cc8c(cc7O6)C(=O)N(C6CCC(=O)NC6=O)C8=O)C5)CC4)cc3)C2(C)C)ccc1C#N` (stereo partly drawn) [Compound 277] the value was 60%; for `COc1cc(O[C@H]2C(C)(C)[C@H](NC(=O)c3ccc(N4CCC(CN5CC6(CCc7ccc8c(c7O6)C(=O)N(C6CCC(=O)NC6=O)C8=O)C5)CC4)cc3)C2(C)C)ccc1C#N` (stereo partly drawn) [Compound 278], 34%.
Still for that read-out and setting: for `COc1cc(OC2C(C)(C)C(NC(=O)c3ccc(N4CCC(CN5CCC6(CC5)COc5cc7c(cc56)C(=O)N(C5CCC(=O)NC5=O)C7=O)CC4)cc3)C2(C)C)ccc1C#N` (stereo not drawn) [Compound 280] the value was 52%.

A further assay addresses T2, AR protein (Homo sapiens, UniProt P10275).
T2 construct: degradation activity of the compounds disclosed in the present disclosure on AR protein in VCaP cells; host or cells: VCaP
T2 sequence (P10275 1-920): T1 sequence (P10275 1-920 T878A) with A878T
The experiment in a line: Degradation of AR protein in VCaP cells (Western blot). Particulars: compound at 10 nM, 8 hours, read-out: Degradation rate of the AR protein in VCaP cells, 10 nM (%). It counts as cell-based. A digest of the protocol: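 VCaP cells treated with compound alongside solvent controls for 8 h, then lysed in RIPA and protein quantified by BCA. AR detected by SDS-PAGE/Western blot with infrared imaging. Degradation rate calculated from band grayscale, with GAPDH as internal reference.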
In general terms: Immunoblotting shows a protein as a band on a membrane.
Consider `COc1cc(O[C@H]2C(C)(C)[C@H](NC(=O)c3ccc(N4CCC(CN5CCC6(CCc7cc8c(cc7O6)C(=O)N(C6CCC(=O)NC6=O)C8=O)CC5)CC4)cc3)C2(C)C)ccc1C#N` (stereo partly drawn) [Compound 276], for which the inhibition at 0.01 µM is -11%.
For `COc1cc(O[C@H]2C(C)(C)[C@H](NC(=O)c3ccc(N4CCC(CN5CC6(CCc7cc8c(cc7O6)C(=O)N(C6CCC(=O)NC6=O)C8=O)C5)CC4)cc3)C2(C)C)ccc1C#N` (stereo partly drawn) [Compound 277], the inhibition at 0.01 µM worked out at 7%.
Same read-out and setting: under `COc1cc(O[C@H]2C(C)(C)[C@H](NC(=O)c3ccc(N4CCC(CN5CC6(CCc7ccc8c(c7O6)C(=O)N(C6CCC(=O)NC6=O)C8=O)C5)CC4)cc3)C2(C)C)ccc1C#N` (stereo partly drawn) [Compound 278] stands -30%; under `COc1cc(OC2C(C)(C)C(NC(=O)c3ccc(N4CCC(CN5CCC6(CC5)COc5cc7c(cc56)C(=O)N(C5CCC(=O)NC5=O)C7=O)CC4)cc3)C2(C)C)ccc1C#N` (stereo not drawn) [Compound 280], 15%.

Staying with this assay, now noted: compound at 100 nM, 8 hours, read-out: Degradation rate of the AR protein in VCaP cells, 100 nM (%).
`COc1cc(O[C@H]2C(C)(C)[C@H](NC(=O)c3ccc(N4CCC(CN5CCC6(CCc7cc8c(cc7O6)C(=O)N(C6CCC(=O)NC6=O)C8=O)CC5)CC4)cc3)C2(C)C)ccc1C#N` (stereo partly drawn) [Compound 276]: the inhibition at 0.1 µM worked out at 59%.
With `COc1cc(O[C@H]2C(C)(C)[C@H](NC(=O)c3ccc(N4CCC(CN5CC6(CCc7cc8c(cc7O6)C(=O)N(C6CCC(=O)NC6=O)C8=O)C5)CC4)cc3)C2(C)C)ccc1C#N` (stereo partly drawn) [Compound 277], the inhibition at 0.1 µM was found to be 54%.
On to `COc1cc(O[C@H]2C(C)(C)[C@H](NC(=O)c3ccc(N4CCC(CN5CC6(CCc7ccc8c(c7O6)C(=O)N(C6CCC(=O)NC6=O)C8=O)C5)CC4)cc3)C2(C)C)ccc1C#N` (stereo partly drawn) [Compound 278], for which the inhibition at 0.1 µM is -16%.
As to `COc1cc(OC2C(C)(C)C(NC(=O)c3ccc(N4CCC(CN5CCC6(CC5)COc5cc7c(cc56)C(=O)N(C5CCC(=O)NC5=O)C7=O)CC4)cc3)C2(C)C)ccc1C#N` (stereo not drawn) [Compound 280], the inhibition at 0.1 µM amounted to 77%.

A further assay deals with LNCaP FGC cells. The experiment in a line: Inhibition of proliferation of LNCaP cells (WST-8). It is filed as cell-based. Particulars: Homo sapiens, LNCaP, 96 h, LNCaP FGC cells, 96 hours, WST-8 absorbance at 450 nm; read-out: IC50 for inhibiting the proliferation of LNCaP cells. On the procedure:
The cells were cultured in a cell culture incubator with 5% CO2 at 37° C. overnight. […] On the sixth day, 96 well plates were taken out, and 20 μL of WST-8 (Beytime, C0040) reagent was added to each well.
(In general: Tetrazolium dyes change colour on reduction, which living cells bring about.)
As for `COc1cc(O[C@H]2C(C)(C)[C@H](NC(=O)c3ccc(N4CCC(CN5CCC6(CCc7cc8c(cc7O6)C(=O)N(C6CCC(=O)NC6=O)C8=O)CC5)CC4)cc3)C2(C)C)ccc1C#N` (stereo partly drawn) [Compound 276], the IC50 was determined as 8.81 µM.
Still for that read-out and setting: for `COc1cc(O[C@H]2C(C)(C)[C@H](NC(=O)c3ccc(N4CCC(CN5CC6(CCc7cc8c(cc7O6)C(=O)N(C6CCC(=O)NC6=O)C8=O)C5)CC4)cc3)C2(C)C)ccc1C#N` (stereo partly drawn) [Compound 277] the value was 10.7 µM; for `COc1cc(O[C@H]2C(C)(C)[C@H](NC(=O)c3ccc(N4CCC(CN5CC6(CCc7ccc8c(c7O6)C(=O)N(C6CCC(=O)NC6=O)C8=O)C5)CC4)cc3)C2(C)C)ccc1C#N` (stereo partly drawn) [Compound 278], 60 µM; for `COc1cc(OC2C(C)(C)C(NC(=O)c3ccc(N4CCC(CN5CCC6(CC5)COc5cc7c(cc56)C(=O)N(C5CCC(=O)NC5=O)C7=O)CC4)cc3)C2(C)C)ccc1C#N` (stereo not drawn) [Compound 280], 9.25 µM.

The subject of another assay is VCaP cells. The experiment in a line: Inhibition of proliferation of VCaP cells (WST-8). It counts as cell-based. Particulars: Homo sapiens; VCaP cells, 168 hours, WST-8 absorbance at 450 nm; read-out: IC50 for inhibiting the proliferation of VCaP cells. A digest of the protocol: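 VCaP FGC cells, 15000 per well in DMEM with 10% FBS, were cultured at 37° C, 5% CO2. On day nine, WST-8 reagent was added to read proliferation.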
As to `COc1cc(O[C@H]2C(C)(C)[C@H](NC(=O)c3ccc(N4CCC(CN5CCC6(CCc7cc8c(cc7O6)C(=O)N(C6CCC(=O)NC6=O)C8=O)CC5)CC4)cc3)C2(C)C)ccc1C#N` (stereo partly drawn) [Compound 276], the IC50 came to 0.035 µM.
Take `COc1cc(O[C@H]2C(C)(C)[C@H](NC(=O)c3ccc(N4CCC(CN5CC6(CCc7cc8c(cc7O6)C(=O)N(C6CCC(=O)NC6=O)C8=O)C5)CC4)cc3)C2(C)C)ccc1C#N` (stereo partly drawn) [Compound 277]: the IC50 worked out at 0.073 µM.
The same measure, in the same setting: under `COc1cc(O[C@H]2C(C)(C)[C@H](NC(=O)c3ccc(N4CCC(CN5CC6(CCc7ccc8c(c7O6)C(=O)N(C6CCC(=O)NC6=O)C8=O)C5)CC4)cc3)C2(C)C)ccc1C#N` (stereo partly drawn) [Compound 278] stands 9.2 µM; under `COc1cc(OC2C(C)(C)C(NC(=O)c3ccc(N4CCC(CN5CCC6(CC5)COc5cc7c(cc56)C(=O)N(C5CCC(=O)NC5=O)C7=O)CC4)cc3)C2(C)C)ccc1C#N` (stereo not drawn) [Compound 280], 0.045 µM.
